The target in assay [1] is T1, NHE3 (Homo sapiens, UniProt P48764).
T1 construct: expressed in transfected cells
T1 sequence (P48764 26-834): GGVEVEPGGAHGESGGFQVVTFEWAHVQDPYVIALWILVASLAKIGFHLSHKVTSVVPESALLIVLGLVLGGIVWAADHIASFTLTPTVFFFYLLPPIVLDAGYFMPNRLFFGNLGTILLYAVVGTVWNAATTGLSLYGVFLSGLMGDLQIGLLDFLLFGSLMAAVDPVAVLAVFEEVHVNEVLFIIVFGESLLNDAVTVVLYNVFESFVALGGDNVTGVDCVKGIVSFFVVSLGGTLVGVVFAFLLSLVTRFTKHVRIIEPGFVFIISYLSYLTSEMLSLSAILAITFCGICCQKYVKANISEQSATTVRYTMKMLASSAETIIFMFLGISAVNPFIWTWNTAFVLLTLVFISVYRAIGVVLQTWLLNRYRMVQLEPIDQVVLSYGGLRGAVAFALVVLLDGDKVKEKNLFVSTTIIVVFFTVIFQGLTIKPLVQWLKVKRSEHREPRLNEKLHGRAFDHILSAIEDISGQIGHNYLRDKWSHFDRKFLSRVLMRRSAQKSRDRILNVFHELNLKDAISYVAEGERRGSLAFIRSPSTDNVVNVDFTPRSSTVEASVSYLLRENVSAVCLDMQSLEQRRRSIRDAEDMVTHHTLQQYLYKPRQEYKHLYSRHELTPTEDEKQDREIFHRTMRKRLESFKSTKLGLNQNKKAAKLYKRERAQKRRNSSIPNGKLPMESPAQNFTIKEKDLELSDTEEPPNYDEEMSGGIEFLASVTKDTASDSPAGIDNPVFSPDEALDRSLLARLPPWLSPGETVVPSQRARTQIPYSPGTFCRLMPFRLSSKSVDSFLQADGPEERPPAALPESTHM
T1 sequence (Q99653 2-195 partner limits assumed): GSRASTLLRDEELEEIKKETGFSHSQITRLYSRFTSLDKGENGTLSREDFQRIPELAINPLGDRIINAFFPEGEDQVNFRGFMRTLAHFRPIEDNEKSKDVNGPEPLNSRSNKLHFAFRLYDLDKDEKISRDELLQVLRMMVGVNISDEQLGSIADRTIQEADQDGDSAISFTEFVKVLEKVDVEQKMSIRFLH
The assay is described as follows: Cell-based assay of NHE-3 activity (pre-incubation inhibition), human. The conditions noted are these: human Preincubation; for pIC50: 0-30 μM test compound. The method, then:
Rat and human NHE-3-mediated Na^+-dependent H^+ antiport was measured using a modification of the pH sensitive dye method originally reported by Paradiso (Proc. Natl. Acad. Sci. USA. (1984) 81(23): 7436-7440). PS120 fibroblasts stably expressing human NHE3 and NHERF2 were obtained from Mark Donowitz (Baltimore, Md.). Opossum kidney (OK) cells were obtained from the ATCC and propagated per their instructions. The rat NHE-3 gene (GenBank M85300) was introduced into OK cells via electroporation, and cells were seeded into 96 well plates and grown overnight. Medium was aspirated from the wells then incubated for 30 min at 37° C. with NH4Cl-HEPES buffer (20 mM NH4Cl, 80 mM NaCl, 50 mM HEPES, 5 mM KCl, 2 mM CaCl2, 1 mM MgCl2, pH 7.4) containing 5 μM BCECF-AM. Cells were washed once with Ammonium free, Na^+-free HEPES (100 mM choline, 50 mM HEPES, 10 mM glucose, 5 mM KCl, 2 mM CaCl2, 1 mM MgCl2, pH 7.4) and incubated in the same buffer for 10 minutes at room temperature to lower intracellular pH with 0-30 μM test compound. […] Changes in intracellular pH were monitored using a FLIPR Tetra® (Molecular Devices, Sunnyvale, Calif.) by excitation at λex 439 to 505 nm, and measuring BCECF fluorescence at λem 538 nm. The initial rate of the fluorescence ratio change was used as a measure of NHE-mediated Na^+/H^+ activity, and reported as the change in fluorescence ratio per minute.

In assay [2] the target is T1, NHE3. The assay can be described thus: Cell-based assay of NHE-3 activity (persistent inhibition), human. The conditions noted are these: human Persistence, 60 min incubation then washout. The method, then:
The ability of compounds to inhibit human and rat NHE-3-mediated Na^+ dependent H^+ antiport after application and washout was measured using a modification of the pH sensitive dye method described above. PS120 fibroblasts stably expressing human NHE3 and NHERF2 were obtained from Mark Donowitz (Baltimore, Md.). Opossum kidney (OK) cells were obtained from the ATCC and propagated per their instructions. The rat NHE-3 gene was introduced into OK cells via electroporation, and cells were seeded into 96 well plates and grown overnight. Medium was aspirated from the wells, cells were washed once with NaCl-HEPES buffer (100 mM NaCl, 50 mM HEPES, 10 mM glucose, 5 mM KCl, 2 mM CaCl2, 1 mM MgCl2, pH 7.4), then overlayed with NaCl-HEPES buffer containing 0-30 μM test compound. After a 60 min incubation at room temperature, the test drug containing buffer was aspirated from the cells. Following aspiration, cells were washed once with NaCl-HEPES buffer without drug, then incubated for 30 min at 37° C. with NH4Cl-HEPES buffer (20 mM NH4Cl, 80 mM NaCl, 50 mM HEPES, 5 mM KCl, 2 mM CaCl2, 1 mM MgCl2, pH 7.4) containing 5 μM BCECF-AM. Cells were washed once with Ammonium free, Na^+-free HEPES (100 mM choline, 50 mM HEPES, 10 mM glucose, 5 mM KCl, 2 mM CaCl2, 1 mM MgCl2, pH 7.4) and incubated in the same buffer for 10 minutes at room temperature to lower intracellular pH. NHE-3-mediated recovery of neutral intracellular pH was initiated (10 min after compound washout) by addition of Na-HEPES buffer. […] Changes in intracellular pH were monitored using a FLIPR Tetra® (Molecular Devices, Sunnyvale, Calif.) by excitation at λex 439 to 505 nm, and measuring BCECF fluorescence at λem 538 nm. The initial rate of the fluorescence ratio change was used as a measure of NHE-mediated Na^+/H^+ activity, and reported as the change in fluorescence ratio per minute.

The record followed here is patent US11242337B2, “Compounds useful for treating gastrointestinal tract disorders” (Ardelyx, Inc., priority 2017, dated 2022).

SMILES strings stand for the structures.

In the case of `Cc1cc(S(=O)(=O)NCCOCCOCCNC(=O)NCCCCNC(=O)NCCOCCOCCNS(=O)(=O)c2ccc(O[C@H]3c4cc(Cl)cc(Cl)c4C[C@@H]3N3CCC[C@@H](N)C3)c(C)c2)ccc1O[C@H]1c2cc(Cl)cc(Cl)c2C[C@@H]1N1CCC[C@@H](N)C1` [Example 1, 1-[2-(2-[2-[(4-[[(1S,2S)-2-[(3R)-3-Aminopiperidin-1-yl]-4,6-dichloro-2,3-dihydro-1H-inden-1-yl]oxy]-3-methylbenzene)sulfonamido]ethoxy]ethoxy)ethyl]-3-[4-([[2-(2-[2-([4-[[(1S,2S)-2-[(3R)-3-aminopiperidin-1-yl]-4,6-dichloro-2,3-dihydro-1H-inden-1-yl]oxy]-3-methylbenzene)sulfonamido]ethoxy]ethoxy)ethyl]carbamoyl]amino)butyl]urea], the “% inhibition” value in assay [1] is given as “C (>70%)”; in assay [2], “B (40-70%)”. Further, the pIC50 result in assay [1] and in assay [2] was “C (NHE3 pIC50 > 7)” each time.

Turning to `N[C@@H]1CCCN([C@H]2Cc3c(Cl)cc(Cl)cc3[C@@H]2Oc2ccc(S(=O)(=O)NCCOCCOCCNC(=O)NCCCCNC(=O)NCCOCCOCCNS(=O)(=O)c3ccc(O[C@H]4c5cc(Cl)cc(Cl)c5C[C@@H]4N4CCC[C@@H](N)C4)c(F)c3)cc2F)C1` [Example 2], the “% inhibition” value in assay [1] and in assay [2] was “C (>70%)” in each case.

As for `Cc1cc(Cl)cc2c1C[C@H](N1CCC[C@@H](N)C1)[C@H]2Oc1ccc(S(=O)(=O)NCCOCCOCCNC(=O)NCCCCNC(=O)NCCOCCOCCNS(=O)(=O)c2ccc(O[C@H]3c4cc(Cl)cc(C)c4C[C@@H]3N3CCC[C@@H](N)C3)cc2)cc1` [Example 3, 3-[2-(2-[2-[(4-[[(1S,2S)-2-[(3R)-3-Aminopiperidin-1-yl]-6-chloro-4-methyl-2,3-dihydro-1H-inden-1-yl]oxy]benzene)sulfonamido]ethoxy]ethoxy)ethyl]-1-[4-([[2-(2-[2-[(4-[[(1S,2S)-2-[(3R)-3-aminopiperidin-1-yl]-6-chloro-4-methyl-2,3-dihydro-1H-inden-1-yl]oxy]benzene)sulfonamido]ethoxy]ethoxy)ethyl]carbamoyl]amino)butyl]urea], the “% inhibition” value in assay [1] and in assay [2] was “C (>70%)” each time.

`N#Cc1cc(Cl)cc2c1C[C@H](N1CCC[C@@H](N)C1)[C@H]2Oc1ccc(S(=O)(=O)NCCOCCOCCNC(=O)NCCCCNC(=O)NCCOCCOCCNS(=O)(=O)c2ccc(O[C@H]3c4cc(Cl)cc(C#N)c4C[C@@H]3N3CCC[C@@H](N)C3)cc2)cc1` [Example 4, 3-[2-(2-[2-[(4-[[(1S,2S)-2-[(3R)-3-Aminopiperidin-1-yl]-6-chloro-4-cyano-2,3-dihydro-1H-inden-1-yl]oxy]benzene)sulfonamido]ethoxy]ethoxy)ethyl]-1-[4-([[2-(2-[2-[(4-[[(1S,2)-2-[(3R)-3-aminopiperidin-1-yl]-6-chloro-4-cyano-2,3-dihydro-1H-inden-1-yl]oxy]benzene)sulfonamido]ethoxy]ethoxy)ethyl]carbamoyl]amino)butyl]urea; bis(trifluoroacetic acid)]: the “% inhibition” value in assay [1] and in assay [2] was “B (40-70%)” throughout.

On to `COc1cc(Cl)cc2c1C[C@H](N1CCC[C@@H](N)C1)[C@H]2Oc1ccc(S(=O)(=O)NCCOCCOCCNC(=O)NCCCCNC(=O)NCCOCCOCCNS(=O)(=O)c2ccc(O[C@H]3c4cc(Cl)cc(OC)c4C[C@@H]3N3CCC[C@@H](N)C3)cc2)cc1` [Example 5, 3-[2-(2-[2-[(4-[[(1S,2S)-2-[(3R)-3-Aminopiperidin-1 yl]-6-chloro-4-methoxy-2,3-dihydro-1H-inden-1-yl]oxy]benzene)sulfonamido]ethoxy]ethoxy)ethyl]-1-[4-[[(2-(2-[2-[(4-[[(1S,2S)-2-[(3R)-3-aminopiperidin-1-yl]-6-chloro-4-methoxy-2,3-dihydro-1H-inden-1-yl]oxy]benzene)sulfonamido]ethoxy]ethoxy)ethyl]carbamoyl]amino)butyl]urea; bis(trifluoroacetic acid)], for which the “% inhibition” value in assay [1] is recorded as “B (40-70%)”; in assay [2], “C (>70%)”.

With `Cc1cc(S(=O)(=O)NCCOCCOCCNC(=O)NCCCCNC(=O)NCCOCCOCCNS(=O)(=O)c2ccc(O[C@H]3c4cc(Cl)cc(F)c4C[C@@H]3N3CCC[C@@H](N)C3)c(C)c2)ccc1O[C@H]1c2cc(Cl)cc(F)c2C[C@@H]1N1CCC[C@@H](N)C1` [Example 6], the “% inhibition” value in assay [1] and in assay [2] was “A (NHE3 < 40%)” throughout. For the same compound, the pIC50 result in assay [1] and in assay [2] was “A (NHE3 pIC50 < 6)” in each case.

For `Cc1cc(S(=O)(=O)NCCOCCOCCNC(=O)NCCCCNC(=O)NCCOCCOCCNS(=O)(=O)c2ccc(O[C@H]3c4cc(Cl)cc(C)c4C[C@@H]3N3CCC[C@@H](N)C3)c(C)c2)ccc1O[C@H]1c2cc(Cl)cc(C)c2C[C@@H]1N1CCC[C@@H](N)C1` [Example 7, 3-[2-(2-[2-[(4-[[(1S,2S)-2-[(3R)-3-Aminopiperidin-1-yl]-6-chloro-4-methyl-2,3-dihydro-1H-inden-1-yl]oxy]-3-methylbenzene)sulfonamido]ethoxy]ethoxy)ethyl]-1-[4-([[2-(2-[2-[(4-[[(1S,2S)-2-[(3R)-3-aminopiperidin-1-yl]-6-chloro-4-methyl-2,3-dihydro-1H-inden-1-yl]oxy]-3-methylbenzene)sulfonamido]ethoxy]ethoxy)ethyl]carbamoyl]amino)butyl]urea], the “% inhibition” value in assay [1] and in assay [2] was “C (>70%)” throughout.
